Where a SMILES comes first, the peptide text is derived from it. The star is where a group is joined. AMC = Cc1cc(=O)oc2cc(N*)ccc12; Decanoyl = CCCCCCCCCC(=O)*
How the values were obtained:
[1] = molecular target: T1, NAD-dependent protein deacetylase sirtuin-3, mitochondrial (Homo sapiens) (UniProt Q9NTG7); assay: Substrate activity at human N-terminal His-tagged SIRT3 (122 to 391 residues) expressed in Escherichia coli at 0.5 uM measured after 2 hrs in presence of NAD+ and trypsin by fluorescence assay
T1 sequence (whole entry): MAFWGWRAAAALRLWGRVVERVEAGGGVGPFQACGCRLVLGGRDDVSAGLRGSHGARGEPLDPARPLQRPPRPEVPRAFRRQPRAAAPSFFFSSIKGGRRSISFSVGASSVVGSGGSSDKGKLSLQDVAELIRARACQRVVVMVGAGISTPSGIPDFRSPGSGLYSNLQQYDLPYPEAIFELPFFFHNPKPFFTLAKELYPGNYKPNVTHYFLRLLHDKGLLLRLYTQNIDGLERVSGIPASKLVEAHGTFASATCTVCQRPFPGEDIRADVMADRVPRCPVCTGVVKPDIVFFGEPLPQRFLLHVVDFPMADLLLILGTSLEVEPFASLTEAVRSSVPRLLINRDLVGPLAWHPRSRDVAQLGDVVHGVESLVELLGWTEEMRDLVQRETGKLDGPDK

[2] = molecular target: T1, NAD-dependent protein deacetylase sirtuin-3, mitochondrial (Homo sapiens); assay: Substrate activity at human N-terminal His-tagged SIRT3 (122 to 391 residues) expressed in Escherichia coli at 50 uM measured after 2 hrs in presence of NAD+ and trypsin by fluorescence assay
[3] = molecular target: T1, NAD-dependent protein deacetylase sirtuin-3, mitochondrial (Homo sapiens); assay: Substrate activity at human N-terminal His-tagged SIRT3 (122 to 391 residues) expressed in Escherichia coli at 5 uM measured after 2 hrs in presence of NAD+ and trypsin by fluorescence assay
[4] = molecular target: T2, NAD-dependent protein deacetylase sirtuin-7 (Homo sapiens) (UniProt Q9NRC8); assay: Substrate activity at human N-terminal His-tagged SIRT7 (68 to 354 residues) expressed in Escherichia coli at 50 uM measured after 2 hrs in presence of NAD+ and trypsin by fluorescence assay
T2 sequence (whole entry): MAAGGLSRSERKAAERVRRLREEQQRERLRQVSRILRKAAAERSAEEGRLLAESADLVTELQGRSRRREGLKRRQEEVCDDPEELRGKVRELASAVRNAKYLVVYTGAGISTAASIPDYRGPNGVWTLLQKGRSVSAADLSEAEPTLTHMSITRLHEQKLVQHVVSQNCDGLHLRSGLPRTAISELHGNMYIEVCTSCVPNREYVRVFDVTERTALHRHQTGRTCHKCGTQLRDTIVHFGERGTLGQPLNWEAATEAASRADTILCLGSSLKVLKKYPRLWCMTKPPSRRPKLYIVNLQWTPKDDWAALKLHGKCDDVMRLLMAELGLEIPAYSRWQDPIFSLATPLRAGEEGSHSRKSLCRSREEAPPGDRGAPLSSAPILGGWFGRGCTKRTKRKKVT

[5] = molecular target: NAD-dependent protein deacylase sirtuin-6 (Homo sapiens) (UniProt Q8N6T7); assay: Substrate activity at human N-terminal His-tagged SIRT6 (1 to 355 residues) expressed in Escherichia coli at 0.5 uM measured after 2 hrs in presence of NAD+ and trypsin by fluorescence assay
NAD-dependent protein deacylase sirtuin-6 (Homo sapiens), sequence (Q8N6T7 whole entry, the tested form may be a part): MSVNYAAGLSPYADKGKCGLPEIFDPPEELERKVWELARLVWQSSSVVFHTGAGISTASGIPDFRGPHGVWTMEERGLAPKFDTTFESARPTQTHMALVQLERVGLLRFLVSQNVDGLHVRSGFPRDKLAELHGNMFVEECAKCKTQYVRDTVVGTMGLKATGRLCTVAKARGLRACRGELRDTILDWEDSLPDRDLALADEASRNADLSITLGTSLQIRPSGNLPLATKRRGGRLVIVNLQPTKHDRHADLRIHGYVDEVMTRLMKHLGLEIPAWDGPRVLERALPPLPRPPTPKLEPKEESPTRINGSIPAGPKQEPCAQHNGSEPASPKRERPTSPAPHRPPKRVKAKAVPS

[6] = molecular target: NAD-dependent protein deacylase sirtuin-5, mitochondrial (Homo sapiens) (UniProt Q9NXA8); assay: Substrate activity at human N-terminal His-tagged SIRT5 (34 to 302 residues) expressed in Escherichia coli at 50 uM measured after 2 hrs in presence of NAD+ and trypsin by fluorescence assay
NAD-dependent protein deacylase sirtuin-5, mitochondrial (Homo sapiens), sequence (Q9NXA8 37-310 limits assumed): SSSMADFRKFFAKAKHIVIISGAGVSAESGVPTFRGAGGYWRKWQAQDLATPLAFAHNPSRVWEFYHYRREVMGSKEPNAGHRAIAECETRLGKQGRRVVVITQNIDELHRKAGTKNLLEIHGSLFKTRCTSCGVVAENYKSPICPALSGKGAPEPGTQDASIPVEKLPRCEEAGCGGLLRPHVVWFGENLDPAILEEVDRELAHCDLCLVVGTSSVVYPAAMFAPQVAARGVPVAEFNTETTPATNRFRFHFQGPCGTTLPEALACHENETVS

[7] = molecular target: T3, NAD-dependent protein deacetylase sirtuin-2 (Homo sapiens) (UniProt Q8IXJ6); assay: Substrate activity at human N-terminal His-tagged SIRT2 (56 to 356 residues) expressed in Escherichia coli at 0.5 uM measured after 2 hrs in presence of NAD+ and trypsin by fluorescence assay
T3 sequence (whole entry): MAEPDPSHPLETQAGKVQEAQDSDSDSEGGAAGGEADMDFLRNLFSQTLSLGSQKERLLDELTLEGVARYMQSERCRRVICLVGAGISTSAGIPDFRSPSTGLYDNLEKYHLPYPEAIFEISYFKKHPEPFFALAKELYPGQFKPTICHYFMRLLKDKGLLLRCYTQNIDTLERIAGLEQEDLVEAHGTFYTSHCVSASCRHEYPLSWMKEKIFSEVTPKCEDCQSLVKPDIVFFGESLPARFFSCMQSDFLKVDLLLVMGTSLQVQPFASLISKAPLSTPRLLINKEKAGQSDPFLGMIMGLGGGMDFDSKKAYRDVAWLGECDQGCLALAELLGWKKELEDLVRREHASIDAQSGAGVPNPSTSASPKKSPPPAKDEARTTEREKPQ

[8] = molecular target: NAD-dependent protein deacylase sirtuin-5, mitochondrial (Homo sapiens) (UniProt Q9NXA8); assay: Substrate activity at human N-terminal His-tagged SIRT5 (34 to 302 residues) expressed in Escherichia coli at 0.5 uM measured after 2 hrs in presence of NAD+ and trypsin by fluorescence assay
[9] = molecular target: T3, NAD-dependent protein deacetylase sirtuin-2 (Homo sapiens); assay: Substrate activity at human N-terminal His-tagged SIRT2 (56 to 356 residues) expressed in Escherichia coli at 50 uM measured after 2 hrs in presence of NAD+ and trypsin by fluorescence assay
[10] = molecular target: T4, NAD-dependent protein deacetylase sirtuin-1 (Homo sapiens) (UniProt Q96EB6); assay: Substrate activity at human N-terminal His-tagged SIRT1 (183 to 664 residues) expressed in Escherichia coli at 5 uM measured after 2 hrs in presence of NAD+ and trypsin by fluorescence assay
T4 sequence (whole entry): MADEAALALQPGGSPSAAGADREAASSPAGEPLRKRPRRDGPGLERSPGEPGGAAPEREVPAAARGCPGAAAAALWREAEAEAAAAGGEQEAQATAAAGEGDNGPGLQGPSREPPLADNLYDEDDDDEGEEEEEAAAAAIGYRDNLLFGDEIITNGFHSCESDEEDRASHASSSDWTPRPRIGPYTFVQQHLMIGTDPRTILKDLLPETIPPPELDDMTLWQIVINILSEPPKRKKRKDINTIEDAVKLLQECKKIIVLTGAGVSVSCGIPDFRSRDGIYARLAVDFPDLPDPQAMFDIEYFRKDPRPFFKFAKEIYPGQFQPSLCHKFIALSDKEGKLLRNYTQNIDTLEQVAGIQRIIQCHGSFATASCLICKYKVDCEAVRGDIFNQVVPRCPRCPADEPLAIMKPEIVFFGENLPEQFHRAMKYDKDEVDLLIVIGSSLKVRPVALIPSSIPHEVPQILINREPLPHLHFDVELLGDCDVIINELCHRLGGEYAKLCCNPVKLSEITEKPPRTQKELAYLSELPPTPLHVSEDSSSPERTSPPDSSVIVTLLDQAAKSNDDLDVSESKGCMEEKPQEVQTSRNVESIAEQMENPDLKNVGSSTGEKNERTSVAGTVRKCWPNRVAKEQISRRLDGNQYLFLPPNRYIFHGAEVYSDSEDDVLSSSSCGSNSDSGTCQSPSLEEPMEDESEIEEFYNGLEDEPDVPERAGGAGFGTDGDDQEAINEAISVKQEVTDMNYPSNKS

[11] = molecular target: NAD-dependent protein deacylase sirtuin-5, mitochondrial (Homo sapiens) (UniProt Q9NXA8); assay: Substrate activity at human N-terminal His-tagged SIRT5 (34 to 302 residues) expressed in Escherichia coli at 5 uM measured after 2 hrs in presence of NAD+ and trypsin by fluorescence assay
[12] = molecular target: NAD-dependent protein deacylase sirtuin-6 (Homo sapiens) (UniProt Q8N6T7); assay: Substrate activity at human N-terminal His-tagged SIRT6 (1 to 355 residues) expressed in Escherichia coli at 50 uM measured after 2 hrs in presence of NAD+ and trypsin by fluorescence assay
[13] = molecular target: T3, NAD-dependent protein deacetylase sirtuin-2 (Homo sapiens); assay: Substrate activity at human N-terminal His-tagged SIRT2 (56 to 356 residues) expressed in Escherichia coli at 5 uM measured after 2 hrs in presence of NAD+ and trypsin by fluorescence assay
[14] = molecular target: T4, NAD-dependent protein deacetylase sirtuin-1 (Homo sapiens); assay: Substrate activity at human N-terminal His-tagged SIRT1 (183 to 664 residues) expressed in Escherichia coli at 0.5 uM measured after 2 hrs in presence of NAD+ and trypsin by fluorescence assay
[15] = molecular target: T2, NAD-dependent protein deacetylase sirtuin-7 (Homo sapiens); assay: Substrate activity at human N-terminal His-tagged SIRT7 (68 to 354 residues) expressed in Escherichia coli at 5 uM measured after 2 hrs in presence of NAD+ and trypsin by fluorescence assay
[16] = molecular target: T4, NAD-dependent protein deacetylase sirtuin-1 (Homo sapiens); assay: Substrate activity at human N-terminal His-tagged SIRT1 (183 to 664 residues) expressed in Escherichia coli at 50 uM measured after 2 hrs in presence of NAD+ and trypsin by fluorescence assay
[17] = molecular target: NAD-dependent protein deacylase sirtuin-6 (Homo sapiens) (UniProt Q8N6T7); assay: Substrate activity at human N-terminal His-tagged SIRT6 (1 to 355 residues) expressed in Escherichia coli at 5 uM measured after 2 hrs in presence of NAD+ and trypsin by fluorescence assay
[18] = molecular target: T2, NAD-dependent protein deacetylase sirtuin-7 (Homo sapiens); assay: Substrate activity at human N-terminal His-tagged SIRT7 (68 to 354 residues) expressed in Escherichia coli at 0.5 uM measured after 2 hrs in presence of NAD+ and trypsin by fluorescence assay

SMILES	Activity [1]	Activity [2]	Activity [3]	Activity [4]	Activity [5]	Activity [6]	Activity [7]	Activity [8]	Activity [9]	Activity [10]	Activity [11]	Activity [12]	Activity [13]	Activity [14]	Activity [15]	Activity [16]	Activity [17]	Activity [18]
CCCCCCCCCC(=O)NCCCC[C@H](NC(=O)[C@H](CCCCN)NC(=O)[C@@H]1CCCN1C(=O)[C@H](CC(N)=O)NC(C)=O)C(=O)Nc1ccc2c(C)cc(=O)oc2c1 (Ac-NPKK(Decanoyl)-{AMC})	0.51 RFU	3.19 RFU	0.79 RFU	1.32 RFU	0.39 RFU	1.99 RFU	0.29 RFU	0.31 RFU	5.3 RFU	0.76 RFU	0.34 RFU	1.32 RFU	1.18 RFU	0.29 RFU	0.49 RFU	2.87 RFU	0.42 RFU	0.29 RFU
CC(=O)NCCCC[C@H](NC(=O)[C@H](CCCNC(=N)N)NC(=O)[C@H](CO)NC(=O)[C@H](CC(N)=O)NC(C)=O)C(=O)Nc1ccc2c(C)cc(=O)oc2c1 (Ac-NSRK(Ac)-{AMC})	0.34 RFU	0.67 RFU	0.41 RFU	0.44 RFU	0.49 RFU	1.02 RFU	0.23 RFU	0.27 RFU	0.52 RFU	0.37 RFU	0.28 RFU	0.44 RFU	0.24 RFU	0.23 RFU	0.32 RFU	1.21 RFU	0.36 RFU	0.38 RFU
CC(=O)NCCCC[C@H](NC(=O)[C@H](CCCCN)NC(=O)[C@H](Cc1cnc[nH]1)NC(=O)[C@H](CCCNC(=N)N)NC(C)=O)C(=O)Nc1ccc2c(C)cc(=O)oc2c1 (Ac-RHKK(Ac)-{AMC})	0.28 RFU	1.61 RFU	0.38 RFU	0.43 RFU	0.5 RFU	0.61 RFU	0.37 RFU	0.37 RFU	2.64 RFU	1.13 RFU	0.3 RFU	0.43 RFU	0.73 RFU	0.37 RFU	0.33 RFU	5.22 RFU	0.38 RFU	0.39 RFU
CC[C@H](C)[C@H](NC(=O)[C@H](CC(C)C)NC(=O)[C@H](CCCNC(=N)N)NC(C)=O)C(=O)N[C@@H](CCCCNC(C)=O)C(=O)Nc1ccc2c(C)cc(=O)oc2c1 (Ac-RLIK(Ac)-{AMC})	2.66 RFU	28.2 RFU	14.2 RFU	0.71 RFU	0.45 RFU	0.98 RFU	0.66 RFU	0.22 RFU	32.5 RFU	18.3 RFU	0.27 RFU	0.71 RFU	4.96 RFU	0.66 RFU	3.2 RFU	24.1 RFU	0.32 RFU	0.27 RFU
CC(=O)NCCCC[C@H](NC(=O)[C@H](CCCNC(=N)N)NC(=O)[C@H](C)NC(=O)[C@@H](NC(C)=O)[C@@H](C)O)C(=O)Nc1ccc2c(C)cc(=O)oc2c1 (Ac-TARK(Ac)-{AMC})	0.31 RFU	0.88 RFU	0.38 RFU	0.43 RFU	0.35 RFU	0.7 RFU	0.2 RFU	0.26 RFU	0.48 RFU	0.33 RFU	0.27 RFU	0.43 RFU	0.22 RFU	0.2 RFU	0.28 RFU	0.97 RFU	0.34 RFU	0.39 RFU

— ChEMBL document CHEMBL4680222, “Sensitive fluorogenic substrates for sirtuin deacylase inhibitor discovery” (Eur J Med Chem, 2020)
